Measurements taken from patent US20100092526A1, “NANOEMULSION THERAPEUTIC COMPOSITIONS AND METHODS OF USING THE SAME” (NanoBio Corporation, priority 2008, published 2010).
Like-named read-outs stand apart in the source and are kept apart here.

Experiments:
Klebsiella pneumoniae = experiment: MIC/MBC of nanoemulsions against gram-negative isolates (CLSI, alamar blue); type: cell-based; details: Klebsiella pneumoniae (n = 5)
Escherichia coli = experiment: as above; type: cell-based; details: Escherichia coli (n = 5)
Proteus mirabilis = experiment: as above; type: cell-based; details: Proteus mirabilis (n = 5)
Acinetobacter baumannii [1] = experiment: as above; type: cell-based; details: Acinetobacter baumannii (n = 5)
Pseudomonas aeruginosa [2] = experiment: as above; type: cell-based; details: Pseudomonas aeruginosa (n = 5)
Burkholderia cepacia = experiment: as above; type: cell-based; details: Burkholderia cepacia (n = 5)
[3] = tested on: Stenotrophomonas maltophilia; experiment: as above; type: cell-based; details: Stenotrophomonas maltophilia (n = 5)
Pseudomonas aeruginosa [4] = experiment: MIC/MBC against CF isolates (CLSI, alamar blue); details: Pseudomonas aeruginosa
Burkholderia cenocepacia = experiment: MIC/MBC against CF isolates (CLSI, alamar blue); details: Burkholderia cenocepacia
[5] = tested on: Stenotrophomonas maltophilia; experiment: MIC/MBC against CF isolates (CLSI, alamar blue); details: Stenotrophomonas maltophilia
Acinetobacter baumannii [6] = experiment: MIC/MBC against clinical isolates (CLSI, alamar blue); details: Acinetobacter baumannii
[7] = nanoemulsions in the presence of 5 mM EDTA
[8] = nanoemulsions in the presence of 5 mM EDTA, in µg/mL
[9] = CF Stenotrophomonas isolate NB41
[10] = CF Stenotrophomonas isolate NB42
[11] = CF Stenotrophomonas isolate NB43
[12] = CF Stenotrophomonas isolate NB44
[13] = CF Stenotrophomonas isolate NB45
[14] = CF Stenotrophomonas isolate Steno 1
[15] = CF Stenotrophomonas isolate Steno 2
[16] = CF Stenotrophomonas isolate Steno 3
[17] = CF Stenotrophomonas isolate Steno 4
[18] = CF Stenotrophomonas isolate Steno 6
[19] = CF Stenotrophomonas isolate Steno 8

C[C@H]1COc2c(N3CCN(C)CC3)c(F)cc3c(=O)c(C(=O)O)cn1c23 [Levofloxacin]
80.0%: % susceptible (Klebsiella pneumoniae) | % susceptible (Acinetobacter baumannii [1]) | % susceptible (Pseudomonas aeruginosa [2])
0.03 µg/mL: MIC50 (Escherichia coli; [7])
1 µg/mL: MIC50 (Pseudomonas aeruginosa [2]; [7]) | MBC (Pseudomonas aeruginosa [4]; CF Pseudomonas isolate NB1) | MBC (Pseudomonas aeruginosa [4]; CF Pseudomonas isolate NB5) | MBC (Pseudomonas aeruginosa [4]; CF Pseudomonas isolate NB6) | MBC (Pseudomonas aeruginosa [4]; CF Pseudomonas isolate NB7) | MBC (Pseudomonas aeruginosa [4]; CF Pseudomonas isolate NB12) | MBC (Pseudomonas aeruginosa [4]; CF Pseudomonas isolate NB20) | MBC (Pseudomonas aeruginosa [4]; read-out: MBC 50, 20 CF Pseudomonas isolates) | MBC (Pseudomonas aeruginosa [4]; read-out: MBC 50, second MBC 50 line of the summary, Stenotrophomonas, values equal those of the CF Pseudomonas isolates) | MIC (Burkholderia cenocepacia; CF Burkholderia isolate NB22) | MIC (Burkholderia cenocepacia; CF Burkholderia isolate NB28b) | MIC (Burkholderia cenocepacia; CF Burkholderia isolate NB29) | MBC (Burkholderia cenocepacia; CF Burkholderia isolate NB30) | MIC (Burkholderia cenocepacia; CF Burkholderia isolate NB30) | MIC [5, 13] | MIC [5, 14] | MIC [5, 16] | MBC (Acinetobacter baumannii [6]; Acinetobacter isolate NB36) | MIC (Acinetobacter baumannii [6]; Acinetobacter isolate NB36)
60.0%: % susceptible (Escherichia coli) | % susceptible [3]
20.0%: % resistant (Klebsiella pneumoniae) | % resistant (Acinetobacter baumannii [1]) | % resistant [3]
40.0%: % resistant (Escherichia coli)
0.06-8: MIC Range (Klebsiella pneumoniae; [8])
1-2: MIC Range (Burkholderia cepacia; [8])
0.06-2: MIC Range (Proteus mirabilis; [8])
0.25 µg/mL: MIC50 (Acinetobacter baumannii [1]; [7]) | MIC (Pseudomonas aeruginosa [4]; CF Pseudomonas isolate NB3) | MIC (Pseudomonas aeruginosa [4]; CF Pseudomonas isolate NB4) | MIC (Pseudomonas aeruginosa [4]; CF Pseudomonas isolate NB12)
16 µg/mL: MBC (Pseudomonas aeruginosa [4]; CF Pseudomonas isolate NB11) | MIC (Pseudomonas aeruginosa [4]; CF Pseudomonas isolate NB14) | MBC (Pseudomonas aeruginosa [4]; CF Pseudomonas isolate NB17) | MIC (Pseudomonas aeruginosa [4]; CF Pseudomonas isolate NB17) | MBC (Pseudomonas aeruginosa [4]; read-out: MBC 90, 20 CF Pseudomonas isolates) | MBC (Pseudomonas aeruginosa [4]; read-out: MBC 90, second MBC 90 line of the summary, Stenotrophomonas, values equal those of the CF Pseudomonas isolates) | MBC (Burkholderia cenocepacia; CF Burkholderia isolate NB24) | MBC [5] | MBC [5, 10] | MBC [5, 12] | MIC50 (Acinetobacter baumannii [6]) | MBC (Acinetobacter baumannii [6]; Acinetobacter isolate NB31) | MIC (Acinetobacter baumannii [6]; Acinetobacter isolate NB31) | MBC (Acinetobacter baumannii [6]; Acinetobacter isolate NB34) | MIC (Acinetobacter baumannii [6]; Acinetobacter isolate NB34) | MBC (Acinetobacter baumannii [6]; Acinetobacter isolate NB37) | MIC (Acinetobacter baumannii [6]; Acinetobacter isolate NB37) | MBC (Acinetobacter baumannii [6]; Acinetobacter isolate NB39) | MIC (Acinetobacter baumannii [6]; Acinetobacter isolate NB39) | MBC (Acinetobacter baumannii [6]; read-out: MBC 50, 10 Acinetobacter isolates)
0.06 µg/mL: MIC50 (Klebsiella pneumoniae; [7])
0.0%: % resistant (Proteus mirabilis) | % resistant (Pseudomonas aeruginosa [2]) | % resistant (Burkholderia cepacia)
0.25-4: MIC Range (Pseudomonas aeruginosa [2]; [8])
0.5-8: MIC Range [3, 8]
0.5 µg/mL: MIC50 [3, 7] | MIC50 (Pseudomonas aeruginosa [4]) | MIC (Pseudomonas aeruginosa [4]; CF Pseudomonas isolate NB1) | MBC (Pseudomonas aeruginosa [4]; CF Pseudomonas isolate NB2) | MIC (Pseudomonas aeruginosa [4]; CF Pseudomonas isolate NB2) | MBC (Pseudomonas aeruginosa [4]; CF Pseudomonas isolate NB3) | MBC (Pseudomonas aeruginosa [4]; CF Pseudomonas isolate NB4) | MIC (Pseudomonas aeruginosa [4]; CF Pseudomonas isolate NB5) | MIC (Pseudomonas aeruginosa [4]; CF Pseudomonas isolate NB6) | MIC (Pseudomonas aeruginosa [4]; CF Pseudomonas isolate NB7) | MBC (Pseudomonas aeruginosa [4]; CF Pseudomonas isolate NB8) | MIC (Pseudomonas aeruginosa [4]; CF Pseudomonas isolate NB8) | MBC (Pseudomonas aeruginosa [4]; CF Pseudomonas isolate NB9) | MIC (Pseudomonas aeruginosa [4]; CF Pseudomonas isolate NB9) | MBC (Pseudomonas aeruginosa [4]; CF Pseudomonas isolate NB10) | MIC (Pseudomonas aeruginosa [4]; CF Pseudomonas isolate NB10) | MIC (Pseudomonas aeruginosa [4]; CF Pseudomonas isolate NB13) | MIC (Pseudomonas aeruginosa [4]; CF Pseudomonas isolate NB20) | MIC [5, 17]
8 µg/mL: MIC90 (Pseudomonas aeruginosa [4]) | MIC (Pseudomonas aeruginosa [4]; CF Pseudomonas isolate NB11) | MBC (Pseudomonas aeruginosa [4]; CF Pseudomonas isolate NB16) | MBC (Pseudomonas aeruginosa [4]; CF Pseudomonas isolate NB18) | MIC (Burkholderia cenocepacia; CF Burkholderia isolate NB23) | MIC (Burkholderia cenocepacia; CF Burkholderia isolate NB24) | MBC (Burkholderia cenocepacia; CF Burkholderia isolate NB25) | MBC (Burkholderia cenocepacia; CF Burkholderia isolate NB26) | MIC (Burkholderia cenocepacia; CF Burkholderia isolate NB26) | MBC (Burkholderia cenocepacia; CF Burkholderia isolate NB27) | MIC90 [5] | MIC [5, 10] | MIC [5, 12] | MBC [5, 15] | MBC (Acinetobacter baumannii [6]; Acinetobacter isolate NB32) | MIC (Acinetobacter baumannii [6]; Acinetobacter isolate NB32) | MBC (Acinetobacter baumannii [6]; Acinetobacter isolate NB33) | MIC (Acinetobacter baumannii [6]; Acinetobacter isolate NB33) | MIC (Acinetobacter baumannii [6]; Acinetobacter isolate NB38)
4 µg/mL: MBC (Pseudomonas aeruginosa [4]; CF Pseudomonas isolate NB15) | MIC (Pseudomonas aeruginosa [4]; CF Pseudomonas isolate NB18) | MBC (Pseudomonas aeruginosa [4]; CF Pseudomonas isolate NB19) | MBC (Burkholderia cenocepacia; CF Burkholderia isolate NB22) | MIC (Burkholderia cenocepacia; CF Burkholderia isolate NB25) | MIC (Burkholderia cenocepacia; CF Burkholderia isolate NB27) | MBC (Burkholderia cenocepacia; CF Burkholderia isolate NB29) | MBC [5, 9] | MBC [5, 11] | MBC [5, 14] | MIC [5, 15] | MBC [5, 16] | MBC [5, 18] | MBC ([5]; read-out: MBC 50, 11 CF Stenotrophomonas isolates)
2 µg/mL: MIC50 (Burkholderia cepacia; [7]) | MBC (Pseudomonas aeruginosa [4]; CF Pseudomonas isolate NB13) | MIC (Pseudomonas aeruginosa [4]; CF Pseudomonas isolate NB15) | MIC (Pseudomonas aeruginosa [4]; CF Pseudomonas isolate NB16) | MIC (Pseudomonas aeruginosa [4]; CF Pseudomonas isolate NB19) | MBC (Burkholderia cenocepacia; CF Burkholderia isolate NB21) | MIC (Burkholderia cenocepacia; CF Burkholderia isolate NB21) | MBC (Burkholderia cenocepacia; CF Burkholderia isolate NB28b) | MIC50 [5] | MIC [5, 9] | MIC [5, 11] | MBC [5, 13] | MBC [5, 17] | MIC [5, 18] | MBC [5, 19] | MIC [5, 19]
> 16 µg/mL: MBC (Pseudomonas aeruginosa [4]; CF Pseudomonas isolate NB14) | MBC (Burkholderia cenocepacia; CF Burkholderia isolate NB23) | MIC90 (Acinetobacter baumannii [6]) | MBC (Acinetobacter baumannii [6]; Acinetobacter isolate NB35) | MIC (Acinetobacter baumannii [6]; Acinetobacter isolate NB35) | MBC (Acinetobacter baumannii [6]; Acinetobacter isolate NB38) | MBC (Acinetobacter baumannii [6]; Acinetobacter isolate NB40) | MIC (Acinetobacter baumannii [6]; Acinetobacter isolate NB40)
100.0%: % susceptible (Proteus mirabilis) | % susceptible (Burkholderia cepacia)
0.12 µg/mL: MIC50 (Proteus mirabilis; [7])
